Measurements published in US20240270762A1, “PENICILLIN-BINDING PROTEIN INHIBITORS” (priority 2021, published 2024).
Values after ≈ are worked out from the molar mass of the structure shown. Read-outs that look alike come from different tables or passages of the source.

What was measured:
[1] = biological target: T1, PBP3 from Escherichia coli (K-12) (Escherichia coli, UniProt P0AD68); assay: Bocillin-FL fluorescence polarization competition binding, E. coli PBP3
T1 construct: made in house
Outline: (§1)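 Purified PBPs pre-incubated with inhibitor (E. coli PBP3 1.5 μM, 30 min; P. aeruginosa PBP3 0.75 μM, A. baumannii PBP1a 1 μM and PBP3 0.2 μM, 15 min), then Bocillin-FL 0.1 μM (0.05 μM for PBP1a) added; FP read up to 60 min. EC50 = concentration halving bound Bocillin-FL.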

[2] = biological target: T2, PBP3 from Acinetobacter baumannii (ATCC 19606) (Acinetobacter baumannii, UniProt A0ABX6CK25); assay: Bocillin-FL fluorescence polarization competition binding, A. baumannii PBP3; settings: fluorescence polarization competition binding assay using Bocillin-FL; read-out: A. baumannii PBP3 Potency
T2 sequence (A0ABX6CK25 64-610): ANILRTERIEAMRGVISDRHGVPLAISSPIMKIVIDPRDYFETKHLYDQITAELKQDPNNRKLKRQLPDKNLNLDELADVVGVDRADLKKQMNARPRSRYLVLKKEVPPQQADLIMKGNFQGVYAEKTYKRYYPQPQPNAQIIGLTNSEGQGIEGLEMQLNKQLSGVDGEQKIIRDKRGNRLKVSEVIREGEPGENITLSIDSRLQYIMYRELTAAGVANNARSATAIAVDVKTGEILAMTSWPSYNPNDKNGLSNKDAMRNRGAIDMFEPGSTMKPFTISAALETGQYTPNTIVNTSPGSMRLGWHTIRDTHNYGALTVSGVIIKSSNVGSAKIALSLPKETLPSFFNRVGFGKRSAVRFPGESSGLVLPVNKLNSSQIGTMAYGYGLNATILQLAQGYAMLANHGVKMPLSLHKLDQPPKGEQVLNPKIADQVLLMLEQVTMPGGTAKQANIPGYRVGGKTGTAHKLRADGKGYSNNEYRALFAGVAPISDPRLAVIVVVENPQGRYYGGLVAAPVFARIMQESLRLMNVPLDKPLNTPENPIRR
Outline: as §1

A. baumannii ATCC 17978 = assay: microbe, parasite or virus in culture; type: cell-based; settings: Acinetobacter baumannii, ATCC17978, read-out: MIC, A. baumannii ATCC 17978
P. aeruginosa ATCC 35151 = assay: microbe, parasite or virus in culture; type: cell-based; settings: Pseudomonas aeruginosa, ATCC35151, read-out: Minimum inhibitory concentration, P. aeruginosa ATCC 35151
[3] = system: P. aeruginosa (ΔmexAB-oprM); assay: Broth microdilution MIC in iron-depleted CAMHB (IDM); type: cell-based; settings: Pseudomonas aeruginosa; iron-depleted CAMHB (IDM); […]; read-out: Minimum inhibitory concentration, P. aeruginosa ΔmexAB-oprM
P. aeruginosa CDC-0054 = assay: microbe, parasite or virus in culture; type: cell-based; settings: Pseudomonas aeruginosa, CDC0054, read-out: Minimum inhibitory concentration, P. aeruginosa CDC-0054
[4] = system: N. gonorrhoeae ATCC 49226; assay: Liquid broth MIC in Fastidious broth; settings: Neisseria gonorrhoeae
N. gonorrhoeae MS11 = assay: Liquid broth MIC in Fastidious broth; settings: Neisseria gonorrhoeae
N. gonorrhoeae WHO K = assay: Liquid broth MIC in Fastidious broth; settings: Neisseria gonorrhoeae
N. gonorrhoeae WHO Z = assay: Liquid broth MIC in Fastidious broth; settings: Neisseria gonorrhoeae
Protocol: Additional antibacterial testing of the series was performed in 8 reference strains of N. gonorrhoeae (ATCC 49226, FA1090, MS 11, WHO G, WHO L, WHO M, WHO K, WHO X, WHO Z, WHO Q, CDC-0197). ATCC 49226, FA1090, MS11, WHO G, WHO L, and WHO M produce wild type or wild-type like PBP2. WHO K, WHO X, WHO Z, WHO Q, and CDC-0197 produce mosaic PBP2. Liquid broth-based assays were used for antibacterial testing of PBP inhibitors in Neisseria gonorrhoeae. Briefly, cryo-preserved bacterial cultures of clinical strains were streaked for isolation on Chocolate Agar (72 g/L (2×) GC Agar Base (BD #228950) and 2% (2×) Hemoglobin was autoclaved at 121° C. for 20 minutes to sterilize. Once cooled to ˜50° C. the 2×GC Agar Base and 2× Hemoglobin solutions are combined and 1% IsoVitaleX Enrichment (BD #211876) was added to the solution). Strains were incubated at 36° C. and 5% CO2 to allow growth of colonies, 24 hours before inoculum preparation. 2-fold serial dilutions of test compounds were conducted in a 96 well plate with a final volume of 75 μL per well at 2-fold the final desired concentration in Fastidious broth (Remel #R07664). For preparation of assay inoculum, a direct suspension was prepared by aseptically swabbing 10-15 colonies from agar plates into culture tubes containing 2 mL of fresh sterile saline. After the dilution plates were set up, direct suspensions were then diluted in a cuvette containing sterile saline and the optical density was measured at 600 nm. Inocula were diluted such that 75 μL of this culture in Fastidious broth results in a starting bacterial concentration of 5×10^5 CFU/mL when added to the dilution plates. The plates were incubated for ˜24 hours at 36° C. and 5% CO2.

[5] = ATCC49226, read-out: Minimum Inhibitory Concentration (MIC), N. gonorrhoeae ATCC 49226
[6] = MS11, read-out: Minimum Inhibitory Concentration (MIC), N. gonorrhoeae MS11
[7] = read-out: Minimum Inhibitory Concentration (MIC), N. gonorrhoeae WHO K
[8] = read-out: Minimum Inhibitory Concentration (MIC), N. gonorrhoeae WHO Z
[9] = ATCC49226, read-out: Minimum Inhibitory Concentration, ATCC 49226
[10] = MS11, read-out: Minimum Inhibitory Concentration, MS11
[11] = read-out: Minimum Inhibitory Concentration, WHO K
[12] = read-out: Minimum Inhibitory Concentration, WHO Z

T1 sequence (P0AD68 1-577): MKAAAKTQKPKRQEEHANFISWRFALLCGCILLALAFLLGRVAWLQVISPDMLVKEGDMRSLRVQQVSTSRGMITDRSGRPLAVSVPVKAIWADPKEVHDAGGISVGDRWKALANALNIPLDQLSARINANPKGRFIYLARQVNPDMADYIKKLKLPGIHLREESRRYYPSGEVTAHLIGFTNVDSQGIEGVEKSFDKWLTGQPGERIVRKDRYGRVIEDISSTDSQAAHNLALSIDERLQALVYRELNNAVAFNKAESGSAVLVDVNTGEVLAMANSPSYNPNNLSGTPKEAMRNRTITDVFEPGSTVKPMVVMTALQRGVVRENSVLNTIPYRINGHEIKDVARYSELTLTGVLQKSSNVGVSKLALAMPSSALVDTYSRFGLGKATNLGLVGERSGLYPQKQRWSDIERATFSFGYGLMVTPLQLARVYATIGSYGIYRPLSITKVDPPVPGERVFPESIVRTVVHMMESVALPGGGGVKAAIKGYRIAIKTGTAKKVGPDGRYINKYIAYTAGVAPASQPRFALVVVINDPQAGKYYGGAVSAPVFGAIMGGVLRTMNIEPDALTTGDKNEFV

| SMILES | EC50 [1] | IC50 [2] | MIC (A. baumannii ATCC 17978) | MIC (P. aeruginosa ATCC 35151) | MIC [3] | MIC (P. aeruginosa CDC-0054) | MIC [4, 5] | MIC (N. gonorrhoeae MS11; [6]) | MIC (N. gonorrhoeae WHO K; [7]) | MIC (N. gonorrhoeae WHO Z; [8]) | MIC [4, 9] | MIC (N. gonorrhoeae MS11; [10]) | MIC (N. gonorrhoeae WHO K; [11]) | MIC (N. gonorrhoeae WHO Z; [12]) |
| --- | --- | --- | --- | --- | --- | --- | --- | --- | --- | --- | --- | --- | --- | --- |
| CN(CCN1CCN(C(=O)N[C@@H](C(=O)N[C@H]2Cc3ccc(F)c(C(=O)O)c3OB2O)c2cc(F)c(O)c(O)c2Cl)C(=O)C1=O)Cc1ccc(N)nc1 [Example 209, (R)-3-((R)-2-(4-(2-(((6-aminopyridin-3-yl)methyl)(methyl)amino)ethyl)-2,3-dioxopiperazine-1-carboxamido)-2-(2-chloro-5-fluoro-3,4-dihydroxyphenyl)acetamido)-7-fluoro-2-hydroxy-3,4-dihydro-2H-benzo[e][1,2]oxaborinine-8-carboxylic acid] | < 10 µM | < 10 µM | < 1 µg/mL | < 1 µg/mL | < 1 µg/mL | 2 to 4 µg/mL (≈ 2.68 to 5.36 µM) | 4 to 8 µg/mL (≈ 5.36 to 10.7 µM) | 4 to 8 µg/mL (≈ 5.36 to 10.7 µM) | > 64 µg/mL | 16 to 32 µg/mL (≈ 21.5 to 42.9 µM) |  |  |  |  |
| O=C(NCCCN1CCN(C(=O)NC(C(=O)N[C@H]2Cc3ccc(F)c(C(=O)O)c3OB2O)c2cc(F)c(O)c(O)c2Cl)C(=O)C1=O)Nc1cccnc1 (stereo partly drawn) [Example 213, (3R)-3-(2-(2-chloro-5-fluoro-3,4-dihydroxyphenyl)-2-(2,3-dioxo-4-(3-(3-(pyridin-3-yl)ureido)propyl)piperazine-1-carboxamido)acetamido)-7-fluoro-2-hydroxy-3,4-dihydro-2H-benzo[e][1,2]oxaborinine-8-carboxylic acid] | < 10 µM | < 10 µM | < 1 µg/mL | < 1 µg/mL | < 1 µg/mL | 2 to 4 µg/mL (≈ 2.63 to 5.26 µM) | 16 to 32 µg/mL (≈ 21.1 to 42.1 µM) | 16 to 32 µg/mL (≈ 21.1 to 42.1 µM) | > 64 µg/mL | > 64 µg/mL |  |  |  |  |
| O=C(NCCCN1CCN(C(=O)NC(C(=O)N[C@H]2Cc3ccc(F)c(C(=O)O)c3OB2O)c2cc(F)c(O)c(O)c2Cl)C1=O)c1nccs1 (stereo partly drawn) [Example 257, (3R)-3-(2-(2-chloro-5-fluoro-3,4-dihydroxyphenyl)-2-(2-oxo-3-(3-(thiazole-2-carboxamido)propyl)imidazolidine-1-carboxamido)acetamido)-7-fluoro-2-hydroxy-3,4-dihydro-2H-benzo[e][1,2]oxaborinine-8-carboxylic acid] | 10 to 50 µM | < 10 µM | < 1 µg/mL | < 1 µg/mL | < 1 µg/mL | 2 to 4 µg/mL (≈ 2.77 to 5.53 µM) |  |  |  |  | > 64 µg/mL | 16 to 32 µg/mL (≈ 22.1 to 44.3 µM) | > 64 µg/mL | 16 to 32 µg/mL (≈ 22.1 to 44.3 µM) |
| O=C(CN1CCN(C(=O)NC(C(=O)N[C@H]2Cc3ccc(F)c(C(=O)O)c3OB2O)c2cc(F)c(O)c(O)c2Cl)C(=O)C1=O)Nc1ccncc1 (stereo partly drawn) [Example 233, (3R)-3-(2-(2-chloro-5-fluoro-3,4-dihydroxyphenyl)-2-(2,3-dioxo-4-(2-oxo-2-(pyridin-4-ylamino)ethyl)piperazine-1-carboxamido)acetamido)-7-fluoro-2-hydroxy-3,4-dihydro-2H-benzo[e][1,2]oxaborinine-8-carboxylic acid] | < 10 µM | < 10 µM | < 1 µg/mL | < 1 µg/mL | < 1 µg/mL | < 1 µg/mL | 4 to 8 µg/mL (≈ 5.58 to 11.2 µM) | 16 to 32 µg/mL (≈ 22.3 to 44.6 µM) | 16 to 32 µg/mL (≈ 22.3 to 44.6 µM) | 16 to 32 µg/mL (≈ 22.3 to 44.6 µM) |  |  |  |  |
| O=C(NCCCN1CCN(C(=O)N[C@H](C(=O)N[C@H]2Cc3ccc(F)c(C(=O)O)c3OB2O)c2cc(F)c(O)c(O)c2Cl)C1=O)c1cccc(O)c1 [Example 254, (R)-3-((S)-2-(2-chloro-5-fluoro-3,4-dihydroxyphenyl)-2-(3-(3-(3-hydroxybenzamido)propyl)-2-oxoimidazolidine-1-carboxamido)acetamido)-7-fluoro-2-hydroxy-3,4-dihydro-2H-benzo[e][1,2]oxaborinine-8-carboxylic acid] | 50 to 250 µM | 10 to 50 µM | 2 to 4 µg/mL (≈ 2.73 to 5.47 µM) | < 1 µg/mL | > 128 µg/mL | > 128 µg/mL |  |  |  |  | > 64 µg/mL | > 64 µg/mL | > 64 µg/mL | > 64 µg/mL |
| O=C(CN1CCN(C(=O)NC(C(=O)N[C@H]2Cc3ccc(F)c(C(=O)O)c3OB2O)c2cc(F)c(O)c(O)c2Cl)C(=O)C1=O)NCc1cccc(O)c1 (stereo partly drawn) [Example 237, (3R)-3-(2-(2-chloro-5-fluoro-3,4-dihydroxyphenyl)-2-(4-(2-((3-hydroxybenzyl)amino)-2-oxoethyl)-2,3-dioxopiperazine-1-carboxamido)acetamido)-7-fluoro-2-hydroxy-3,4-dihydro-2H-benzo[e][1,2]oxaborinine-8-carboxylic acid] | < 10 µM | < 10 µM | < 1 µg/mL | < 1 µg/mL | < 1 µg/mL | 8 to 16 µg/mL (≈ 10.7 to 21.5 µM) | 16 to 32 µg/mL (≈ 21.5 to 42.9 µM) | 16 to 32 µg/mL (≈ 21.5 to 42.9 µM) | > 64 µg/mL | 16 to 32 µg/mL (≈ 21.5 to 42.9 µM) |  |  |  |  |
| O=C(NCCCN1CCN(C(=O)NC(C(=O)N[C@H]2Cc3ccc(F)c(C(=O)O)c3OB2O)c2cc(F)c(O)c(O)c2Cl)C(=O)C1=O)Nc1ccc(O)cc1 (stereo partly drawn) [Example 227, (3R)-3-(2-(2-chloro-5-fluoro-3,4-dihydroxyphenyl)-2-(4-(3-(3-(4-hydroxyphenyl)ureido)propyl)-2,3-dioxopiperazine-1-carboxamido)acetamido)-7-fluoro-2-hydroxy-3,4-dihydro-2H-benzo[e][1,2]oxaborinine-8-carboxylic acid] | 10 to 50 µM | < 10 µM | < 1 µg/mL | < 1 µg/mL | < 1 µg/mL | < 1 µg/mL | 16 to 32 µg/mL (≈ 20.6 to 41.3 µM) | 16 to 32 µg/mL (≈ 20.6 to 41.3 µM) | > 64 µg/mL | 16 to 32 µg/mL (≈ 20.6 to 41.3 µM) |  |  |  |  |
| O=C(NCCN1CCN(C(=O)NC(C(=O)N[C@H]2Cc3ccc(F)c(C(=O)O)c3OB2O)c2cc(F)c(O)c(O)c2Cl)C1=O)Nc1cccnc1 (stereo partly drawn) [Example 251, (3R)-3-(2-(2-chloro-5-fluoro-3,4-dihydroxyphenyl)-2-(2-oxo-3-(2-(3-(pyridin-3-yl)ureido)ethyl)imidazolidine-1-carboxamido)acetamido)-7-fluoro-2-hydroxy-3,4-dihydro-2H-benzo[e][1,2]oxaborinine-8-carboxylic acid] | < 10 µM | < 10 µM | < 1 µg/mL | < 1 µg/mL | < 1 µg/mL | 8 to 16 µg/mL (≈ 11.1 to 22.3 µM) |  |  |  |  | 16 to 32 µg/mL (≈ 22.3 to 44.6 µM) | 16 to 32 µg/mL (≈ 22.3 to 44.6 µM) | > 64 µg/mL | 16 to 32 µg/mL (≈ 22.3 to 44.6 µM) |
